Assays:
COX-2 = target: T1, COX-2 (UniProt P35354); test: Fast assay for COX-2 activity (PGE2 ELISA); assay type: biochemical, human or murine; settings: fast assay: 10 min pre-incubation at 25° C., reaction stopped after two minutes, pH 7.5
T1 sequence (P35354 1-604): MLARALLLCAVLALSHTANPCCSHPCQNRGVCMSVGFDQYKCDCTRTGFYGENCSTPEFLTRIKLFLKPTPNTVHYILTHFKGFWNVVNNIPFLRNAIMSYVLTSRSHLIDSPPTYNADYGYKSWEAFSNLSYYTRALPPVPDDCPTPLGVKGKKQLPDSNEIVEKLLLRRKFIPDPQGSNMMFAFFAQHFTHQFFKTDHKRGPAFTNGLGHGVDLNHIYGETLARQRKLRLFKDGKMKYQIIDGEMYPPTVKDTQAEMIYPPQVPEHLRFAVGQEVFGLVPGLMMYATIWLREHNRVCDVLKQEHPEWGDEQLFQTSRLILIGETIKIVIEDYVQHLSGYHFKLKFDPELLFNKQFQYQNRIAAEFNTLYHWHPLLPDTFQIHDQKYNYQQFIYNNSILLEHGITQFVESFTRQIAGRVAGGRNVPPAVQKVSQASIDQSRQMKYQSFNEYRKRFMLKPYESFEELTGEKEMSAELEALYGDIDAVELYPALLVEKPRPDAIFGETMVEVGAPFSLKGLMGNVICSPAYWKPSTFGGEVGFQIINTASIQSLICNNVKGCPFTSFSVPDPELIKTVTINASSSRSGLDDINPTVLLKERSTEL

COX-1 = COX-1 (UniProt P23219); test: Assay for COX-1 activity (PGE2 ELISA); settings: read-out: COX-1 IC50; 10–20 minutes pre-incubation, reaction stopped after ten minutes, pH 8.0

IC50 (COX-2)	melting point	IC50 (COX-1)	SMILES
< 0.1 µM	207.5 to 209.3 °C	–	Cc1cc2c(cc1Cl)C=C(C(=O)O)C(C(F)(F)F)O2 (stereo not shown) [Example 6, 6-Chloro-7-methyl-2-trifluoromethyl-2H-1-benzopyran-3-carboxylic acid]
0.3 µM	189.6 to 190.9 °C	–	O=C(O)C1=Cc2cc(Br)ccc2OC1C(F)(F)F (stereo not shown) [Example 13, 6-Bromo-2-trifluoromethyl-2H-1-benzopyran-3-carboxylic acid]
> 100 µM	224.5 to 225.6 °C	–	O=C(O)C1=Cc2cccc(Cl)c2OC1C(F)(F)F (stereo not shown) [Example 14, 8-Chloro-2-trifluoromethyl-2H-1-benzopyran-3-carboxylic acid]
12 µM	190.1 to 191.2 °C	–	O=C(O)C1=Cc2c(Cl)cc(Cl)cc2OC1C(F)(F)F (stereo not shown) [Example 18, 5,7-Dichloro-2-trifluoromethyl-2H-1-benzopyran-3-carboxylic acid]
11 µM	171.6 to 175 °C	–	O=C(O)C1=Cc2cccc(-c3ccccc3)c2OC1C(F)(F)F (stereo not shown) [Example 21, 8-Phenyl-2-trifluoromethyl-2H-1-benzopyran-3-carboxylic acid]
> 100 µM	245.2 to 247.3 °C	–	Cc1ccc2c(c1C)OC(C(F)(F)F)C(C(=O)O)=C2 (stereo not shown) [Example 22, 7,8-Dimethyl-2-trifluoromethyl-2H-1-benzopyran-3-carboxylic acid]
> 100 µM	158.3 to 159.7 °C	–	CC(C)c1ccc2c(c1)OC(C(F)(F)F)C(C(=O)O)=C2 (stereo not shown) [Example 25, 7-(1-Methylethyl)-2-trifluoromethyl-2H-1-benzopyran-3-carboxylic acid]
> 100 µM	209.4 to 211.7 °C	–	O=C(O)C1=Cc2ccc(-c3ccccc3)cc2OC1C(F)(F)F (stereo not shown) [Example 26, 7-Phenyl-2-trifluoromethyl-2H-1-benzopyran-3-carboxylic acid]
67 µM	170.7 to 172.1 °C	–	CCc1cc2c(cc1Cl)C=C(C(=O)O)C(C(F)(F)F)O2 (stereo not shown) [Example 27, 6-Chloro-7-ethyl-2-trifluoromethyl-2H-1-benzopyran-3-carboxylic acid]
< 0.1 µM	197.2 to 199.1 °C	–	CCc1cc(Cl)cc2c1OC(C(F)(F)F)C(C(=O)O)=C2 (stereo not shown) [Example 29, 6-Chloro-8-ethyl-2-trifluoromethyl-2H-1-benzopyran-3-carboxylic acid]
–	204.5 to 206.9 °C	43 µM	COc1cc(Cl)c2c(c1)C=C(C(=O)O)C(C(F)(F)F)O2 (stereo not shown) [Example 40, 8-Chloro-6-methoxy-2-trifluoromethyl-2H-1-benzopyran-3-carboxylic acid]
99 µM	> 300 °C	–	O=C(O)C1=Cc2cc(F)cc(Br)c2OC1C(F)(F)F (stereo not shown) [Example 43, 8-Bromo-6-fluoro-2-trifluoromethyl-2H-1-benzopyran-3-carboxylic acid]
79 µM	201.2 to 202.5 °C	–	CN(C)S(=O)(=O)c1ccc2c(c1)C=C(C(=O)O)C(C(F)(F)F)O2 (stereo not shown) [Example 50, 6-[(Dimethylamino)sulfonyl]-2-trifluoromethyl-2H-1-benzopyran-3-carboxylic acid]
20 µM	207.6 to 208.6 °C	–	CNS(=O)(=O)c1ccc2c(c1)C=C(C(=O)O)C(C(F)(F)F)O2 (stereo not shown) [Example 52, 6-(Methylamino)sulfonyl-2-trifluoromethyl-2H-1-benzopyran-3-carboxylic acid]
19 µM	229.3 to 233.5 °C	–	CC(C)(C)NS(=O)(=O)c1ccc2c(c1)C=C(C(=O)O)C(C(F)(F)F)O2 (stereo not shown) [Example 54, 6-[(1,1-Dimethylethyl)aminosulfonyl]-2-trifluoromethyl-2H-1-benzopyran-3-carboxylic acid]
43 µM	159 to 164 °C	–	O=C(O)C1=Cc2cc(C(=O)Cc3ccccc3)ccc2OC1C(F)(F)F (stereo not shown) [Example 59, 6-Phenylacetyl-2-trifluoromethyl-2H-1-benzopyran-3-carboxylic acid]
1.4 µM	244.7 to 249.8 °C	–	O=C(O)C1=Cc2c(ccc3ccccc23)OC1C(F)(F)F (stereo not shown) [Example 63]
–	–	6.7 µM	O=C(O)C1=Cc2cc(OC(F)(F)F)ccc2O[C@@H]1C(F)(F)F [Example 67, (S)-6-Trifluoromethoxy-2-trifluoromethyl-2H-1-benzopyran-3-carboxylic acid]

IC50 (COX-2)	melting point	IC50 (COX-1)	SMILES
–	–	5.6 µM	O=C(O)C1=Cc2cc(C(F)(F)F)ccc2OC1C(F)(F)F (stereo not shown) [Example 82, 2,6-Bis(trifluoromethyl)-2H-1-benzopyran-3-carboxylic acid]
36 µM	–	–	CC(C)c1cc(Cl)cc2c1OC(C(F)(F)F)C(C(=O)O)=C2 (stereo not shown) [Example 103, 6-Chloro-8-(1-methylethyl)-2-trifluoramethyl-2H-1-benzopyran-3-carboxylic acid]
–	150 to 156 °C	–	O=C(O)C1=Cc2cc(C(F)(F)F)ccc2NC1C(F)(F)F (stereo not shown) [Example 163, 6-(Trifluoromethyl)-1,2-dihydro-2-(trifluoromethyl)-3-quinolinecarboxylic acid]
–	238 to 240 °C	–	N#Cc1ccc2c(c1)C=C(C(=O)O)C(C(F)(F)F)N2 (stereo not shown) [Example 164, 6-Cyano-1,2-dihydro-2-(trifluoromethyl)-3-quinolinecarboxylic acid]
–	229 to 231 °C	–	O=C(O)C1=Cc2cc(Cl)ccc2N(Cc2ccc(C(F)(F)F)cc2)C1C(F)(F)F (stereo not shown) [Example 166, 6-Chloro-1,2-dihydro-2-(trifluoromethyl)-1-[[4-(trifluoromethyl)phenyl]methyl]-3-quinolinecarboxylic acid]
–	250 to 253 °C	–	O=C(O)C1=Cc2cc(Cl)ccc2N(Cc2ccc(Cl)cc2)C1C(F)(F)F (stereo not shown) [Example 167, 6-Chloro-1-[(4-Chlorophenyl)methyl]-1,2-dihydro-2-(trifluoromethyl)-3-quinolinecarboxylic acid]
–	196 to 197 °C	–	COc1ccc(CN2c3ccc(Cl)cc3C=C(C(=O)O)C2C(F)(F)F)cc1 (stereo not shown) [Example 168, 6-Chloro-1,2-dihydro-2-(trifluoromethyl)-1-[[4-(methoxy)phenyl]methyl]-3-quinolinecarboxylic acid]
–	258 to 260 °C	–	N#Cc1ccc(CN2c3ccc(Cl)cc3C=C(C(=O)O)C2C(F)(F)F)cc1 (stereo not shown) [Example 169, 6-Chloro-1-[(4-cyanophenyl)methyl]-1,2-dihydro-2-(trifluoromethyl)-3-quinolinecarboxylic acid]
–	225 to 228 °C	–	O=C(O)C1=Cc2cc(Cl)ccc2N(Cc2ccc([N+](=O)[O-])cc2)C1C(F)(F)F (stereo not shown) [Example 170, 6-Chloro-1,2-dihydro-1-[(4-nitrophenyl)methyl]-2-(trifluoromethyl)-3-quinolinecarboxylic acid]
–	201 to 202 °C	–	CCN1c2ccc(Cl)cc2C=C(C(=O)O)C1C(F)(F)F (stereo not shown) [Example 171, 6-Chloro-1,2-dihydro-1-ethyl-2-(trifluoromethyl)-3-quinolinecarboxylic acid]
–	114 to 120 °C	–	O=C(O)C1=Cc2cc(C(O)C(F)(F)F)ccc2OC1C(F)(F)F (stereo not shown) [Example 173, 6-(2,2,2-Trifluoro-1-hydroxyethyl)-2-(trifluoromethyl)-2H-1-benzopyran-3-carboxylic acid]
–	287.4 to 288.4 °C	–	O=C(O)C1=Cc2cc(Cl)cnc2NC1C(F)(F)F (stereo not shown) [Example 174, 6-Chloro-2-(triflouromethyl)-1,2-dihydro[1,8]napthyridine-3-carboxylic acid]
–	240.4 to 241.5 °C	–	O=C(O)C1=Cc2cc(Cl)c(S(=O)(=O)c3ccc(Cl)cc3)cc2OC1C(F)(F)F (stereo not shown) [Example 194, 6-Chloro-7-[(4-chlorophenyl)sulfonyl]-2-(trifluoromethyl)-2H-1-benzopyran-3-carboxylic acid]
< 0.1 µM	226.4 to 227.4 °C	–	O=C(O)C1=Cc2cc(Cl)c(Oc3cccc(Cl)n3)cc2OC1C(F)(F)F (stereo not shown) [Example 199, 6-Chloro-7-[(6-chloro-2-pyridinyl)oxy]-2-(trifluoromethyl)-2H-1-benzopyran-3-carboxylic acid]
< 0.1 µM	246.4 to 248.3 °C	–	O=C(O)C1=Cc2cc(Cl)c(Oc3ccc([N+](=O)[O-])cc3)cc2OC1C(F)(F)F (stereo not shown) [Example 203, 6-Chloro-7-(4-nitrophenoxy)-2-(trifluoromethyl)-2H-1-benzopyran-3-carboxylic acid]
–	199 to 199.1 °C	–	O=C(O)C1=Cc2cc(Cl)c(Oc3ccccc3Cl)cc2OC1C(F)(F)F (stereo not shown) [Example 204, 6-Chloro-7-(2-chlorophenoxy)-2-(trifluoromethyl)-2H-1-benzopyran-3-carboxylic acid]
–	206.8 to 207.4 °C	–	O=C(O)C1=Cc2cc(Cl)c(Oc3ccc(Cl)c(F)c3)cc2OC1C(F)(F)F (stereo not shown) [Example 205, 6-Chloro-7-(4-chloro-3-fluorophenoxy)-2-(trifluoromethyl)-2H-1-benzapyran-3-carboxylic acid]
–	170.9 to 172.1 °C	–	CCC1=C(C(=O)O)C(C(F)(F)F)Oc2ccc(Cl)cc21 (stereo not shown) [Example 212, 6-Chloro-4-ethyl-2-trifluoromethyl-2H-1-benzopyran-3-carboxylic acid]

Reference: patent US7138411B2, “Substituted benzopyran derivatives for the treatment of inflammation” (G.D. Searle & Co., priority 1997, dated 2006)
